One assay has as its system PC13 cells. Briefly: Peptide-binding assay with FITC-labeled peptide, immunofluorescent staining. The assay is classed as cell-based, human. The method, then:
(§1) To investigate whether the synthetic peptide and the selected phage clone competed for the same binding site, a peptide-competitive inhibition assay was performed by immunofluorescent staining. Targeting peptide TDSILRSYDWTY (SP5-2) [SEQ ID NO: 2] and control peptide (RLLDTNRPLLPY) [SEQ ID NO: 22] were synthesized and purified by reverse-phase high-performance liquid chromatography to >95% purity by Invitrogene, Inc. (CA, USA). Conjugation of these peptides with FITC or biotin was performed by adding FITC or biotin to the peptide NH2 terminus by the same company.

For assay [1], the system named is CL1-5 cells. The description is as above. The assay is classed as cell-based, human. The method, then: as §1
Another assay relates to A549 cells. The description is as above. It is filed as cell-based, human. As for the experimental part: as §1
Another assay deals with H23 cells. Described as above. It is filed as cell-based, human. The method, then: as §1
In a further assay the test system is H460 cells. The assay is described as above. The assay is classed as cell-based, human. The method, then: as §1
For assay [2], the system named is CL1-5 cells. Briefly: Peptide-competitive inhibition assay by immunofluorescent staining. The assay is classed as cell-based, human. The method, then:
as §1
Phages were mixed with different concentrations of synthetic peptides and incubated with cells at 4° C. for 1 h. The slides were further incubated with mouse anti-M13 monoclonal antibody (Amersham Biosciences, Uppsala, Sweden), followed by incubation with FITC-labeled goat anti-mouse antibody (Jackson ImmunoResearch). The slides were washed and mounted with mounting medium (Vector, Calif., USA). Then the slides were examined under a Leica Universal microscope. The images were merged by SimplePCI (C-IMAGING, PA, USA) software.

In another assay the test system is CL1-5-derived tumors. In words: In vivo tumor homing, phage titers recovered from tumor and organs. The arrangement: species or system SCID mice. As to conditions: for effect of co-injected peptide on recovery of PC5-2 from tumor mass: co-injection of 100 μg peptide. As for the experimental part: (§2) To investigate the targeting ability of PC5-2 in vivo, phages were injected into the tail vein of mice bearing CL1-5-derived tumors and recovered after perfusion. SCID mice were injected subcutaneously into the dorsolateral flank with 1×10^7 cancer cells. The mice bearing size-matched lung cancer-derived tumor (tumor sizes about 500 mm3) were injected with targeting phage or control phage through the tail vein. Eight minutes after injection, the mice were treated with diethyl ether to drive them into deep anesthesia. Then the mice were perfused with 50 ml PBS to wash unbound phage. The control organs (brain, heart, and lung) and tumor mass were removed, weighed, and washed three times with cold PBS-PI (protease inhibitor cocktail tablet; Roche, Germany). The organ and tumor samples were homogenized. Then, the phage bound to the tumor mass or control organs were rescued by adding 0.5 ml ER2738 bacterial for 30 minutes at 37° C. The eluted phage particles were titered on agar plates in the presence of 1 mg/L of IPTG/X-Gal. In peptide competitive inhibition experiments, the phages were co-injected with 100 μg of synthetic peptide. We also used the control peptide. The organs and tumor masses were fixed in Bouin's solution for 2 h. After fixation, the samples were embedded in paraffin blocks. The paraffin sections were deparaffinized, rehydrated and subjected to immunostaining using M13 monoclonal antibody, as mentioned above.

Assay [3] deals with CL1-5 cells. In words: Flow cytometry of phage-bound cells. It is filed as cell-based, human. As to conditions: peptide competitive inhibition. As for the experimental part: Furthermore, to investigate the target molecule expressed on the cell surface of CL1-5, we measured PC5-2-bound cells using flow cytometry. Lung and other cancer cell lines were cultured overnight and then suspended in PBS containing 50 mM EDTA and blocked with blocking buffer at 4° C. for 30 minutes. The cells were washed 2 times with flow buffer (PBS containing 1% fetal bovine serum). The cells were incubated with phages or FITC-labeled peptide. For the peptide competitive inhibition assay, the phages were mixed with different concentrations of synthetic peptides and the mixture was incubated with the cells. After washing two times with cold flow buffer, the phage-bound cells were incubated with anti-M13 monoclonal antibodies at 4° C. for 1 h and then treated with FITC-conjugated goat anti-mouse IgG antibody. The cells were washed two times with cold flow buffer and then applied to a flow cytometer (Becton Dickinson).
(In general: A flow cytometer gives signals particle by particle.)

The test system of a further assay is NSCLC xenografts. In words: In vivo tissue distribution of phage by immunostaining. The arrangement: species or system SCID mice. Particulars: in vivo homing. As for the experimental part: as §2, with “The paraffin sections were deparaffinized, rehydrated and subjected to immunostaining using M13 monoclonal antibody, as mentioned above.” left out

Where no end group is shown, it is not given here. The star is where a group is joined. FITC = O=C1OC2(c3ccc(O)cc3Oc3cc(O)ccc32)c2ccc(NC(=S)*)cc21

Regarding “FITC-labeled control peptide: control peptide RLLDTNRPLLPY with FITC at the NH2 terminus ({FITC}-RLLDTNRPLLPY)”, the “binding of FITC-labeled peptide to cells” value in the assay on PC13 cells, in the assay with CL1-5 cells [1], in the assay on A549 cells, with H23 cells and with H460 cells was “no such binding activity” in each case.

Take RLLDTNRPLLPY [control peptide]: in the assay with CL1-5 cells [2], the “effect of synthetic peptide on binding of PC5-2 phage to CL1-5 cells” value is listed as “no such effect”. Moreover, in the assay with CL1-5-derived tumors, the “effect of co-injected peptide on recovery of PC5-2 from tumor mass” value was “no such inhibitory effect”.

For the substance TDSILRSYDWTY [SP5-2], in the assay on CL1-5 cells [2], the “effect of synthetic peptide on binding of PC5-2 phage to CL1-5 cells” value is listed as “inhibited”. Besides, in the assay with CL1-5 cells [2] (CL1-5), the “peptide concentration able to inhibit the PC5-2 binding activity completely” value is 27 µg/mL. Further, the “effect of peptide on phage bound to CL1-5 cells” value in the assay on CL1-5 cells [3] is reported as “completely inhibited”. Moreover, the “effect of peptide on targeting of PC5-2 to NSCLC xenograft” value in the assay with NSCLC xenografts is recorded as “inhibited”. Moreover, the “effect of co-injected peptide on recovery of PC5-2 from tumor mass” value in the assay with CL1-5-derived tumors is recorded as “markedly inhibited”. Also, the “inhibition of PC5-2 binding to tumor mass” value in the assay with CL1-5-derived tumors (co-injection of one hundred micrograms of peptide) is 92%.

Source of the values: patent US8415453B2, “Lung cancer-targeted peptides and applications thereof” (Academia Sinica, priority 2007, dated 2013).
